Reference: patent publication US8153103B2, “Conjugates of photo-activatable dyes” (Board of Regents, The University of Texas System, priority 2008, dated 2012)

Test system: gap junction channels
Assay: Cell-cell dye transfer after local uncaging in C. elegans embryos (control experiments)
Assay type: in vivo
Details: α-GA 25 μM, 4-cell embryo, eggshell thinned with bleach and chitinase, ABp uncaged
Source text: To study the pattern of cell-cell coupling during early development, embryos were collected from injected worms and subjected to differential interference contrast (“DIC”) imaging. Three to four hours after injection, early embryos were collected from injected worms by cutting the worms near the uterus. Labeled embryos were transferred onto a 2% agar pad, covered with a coverslip, and mounted on an inverted fluorescence microscope (Axiovert 200M, Carl Zeiss, Peabody, Mass.). During uncaging and imaging, motorized filter wheels (Ludl Electronics Products, Hawthorne, N.Y.) were employed to select excitation and emission wavelengths by passing light from a Xeon lamp (75 W) through bandpass filters (Chroma Technology, Rockingham, Vt.). A neutral density filter was also added to the light path to reduce the excitation light intensity by about 70%. The typical UV uncaging duration is about 2 seconds. Bandpass filters were chosen for UV uncaging (360±20 nm), coumarin imaging (excitation 425±5 nm, emission 460±15 nm), GFP imaging (excitation 488±7.5 nm, emission 530±20 nm), and rhodamine imaging (excitation 560±20 nm, emission 615±30 nm). A customized multiple path dichroic mirror was used for the UV uncaging and 3-color imaging. Epifluorescence was collected with a cooled CCD camera (ORCA-ER, Hamamatsu, Bridgewater, N.J.) under the control of OpenLab software (Improvision, Waltham, Mass.). […]

For `CC1(C)[C@@H](O)CC[C@]2(C)[C@H]3C(=O)C=C4[C@H]5C[C@@](C)(C(=O)O)CC[C@]5(C)CC[C@@]4(C)[C@]3(C)CC[C@@H]12` [α-GA, 18α-glycyrrhetinic acid], the “cell-cell dye transfer after uncaging dextran-CANPE-HCC in presence of blocker” value was “dye transfer was not observed”.
